Laboratory results from article PMC10425983 (ACS Infectious Diseases, 2023).

How the values were obtained:
[1] = tested on: L. infantum (MHOM/MA(BE)/67/ITMAP263) amastigotes; test: L. infantum intramacrophage amastigote assay; type: cell-based, Leishmania infantum; conditions: for EC50: Leishmania infantum, 120 h, read-out: L.inf pEC50 (converted); for SI: ratio CC50 μM (PMM)/EC50 μM (L.inf)
[2] = Cytotoxicity toward primary peritoneal mouse macrophages; type: cell-based; conditions: Swiss, mouse, primary peritoneal mouse macrophages (PMM), PMM pCC50, primary mouse macrophages; highest in-test concentration 64 μM
[3] = Rat hepatocyte intrinsic clearance; type: in vitro ADME; conditions: for hepatocyte CLint: rat, rat hepatocytes
[4] = Human liver microsome intrinsic clearance; type: in vitro ADME; conditions: for microsomal CLint at 3 µM: human, human liver microsomes, pH 7.4, HLM clint
[5] = Thermodynamic aqueous solubility; type: physicochemical
[6] = Free plasma concentration; type: in vitro ADME; conditions: free fraction in plasma
[7] = tested on: primary peritoneal mouse macrophages (PMM); test: Cytotoxicity toward primary peritoneal mouse macrophages; type: cell-based; conditions: primary mouse macrophages; highest in-test concentration 64 μM

Row | EC50 [1] | hepatocyte CLint [3] | microsomal CLint at 3 µM [4] | aq. sol. [5] | metabolic stability class in rat hepatocytes ([3]; clearance class in words) | metabolic stability class in human liver microsomes ([4]; clearance class in words) | free plasma concentration [6] | SMILES | SI [1] | CC50 at 5 days [2] | PMM pCC50 [7]
1 | 7.94 µM | 30 µL/min/1e6 cells | 28 µL/min/mg | 62 µM |  |  |  | COc1cccc2nc(-c3ccccn3)c(Nc3ccc(F)cc3)n12 [Compound 3c, N-(4-Fluorophenyl)-5-methoxy-2-(pyridin-2-yl)imidazo[1,2-a]pyridin-3-amine] | 1 | 7.94 µM | 
2 | 15.8 µM | > 300 µL/min/1e6 cells | 212 µL/min/mg | 68 µM |  |  |  | Fc1ccc(Nc2c(-c3ccccn3)nc3cccnn23)cc1 [Compound 3d, N-(4-Fluorophenyl)-2-(pyridin-2-yl)imidazo[1,2-b]pyridazin-3-amine] | 2 | 31.6 µM | 
3 | 31.6 µM | > 300 µL/min/1e6 cells |  | 5 µM |  |  |  | CS(=O)(=O)c1ccc2nc(-c3ccccn3)c(Nc3ccc(F)cc3)n2c1 [Compound 3o, N-(4-Fluorophenyl)-6-methanesulfonyl-2-(pyridin-2-yl)imidazo[1,2-a]pyridin-3-amine] | 1 | 31.6 µM | 
4 | 7.94 µM | > 300 µL/min/1e6 cells | 247 µL/min/mg | 0.5 µM |  |  |  | CSc1ccc2nc(-c3ccccn3)c(Nc3ccc(F)cc3)n2c1 [Compound 3n, N-(4-Fluorophenyl)-6-(methylsulfanyl)-2-(pyridin-2-yl)imidazo[1,2-a]pyridin-3-amine] | 1 | 7.94 µM | 
5 | 7.94 µM | > 300 µL/min/1e6 cells | 270 µL/min/mg | 76 µM |  |  |  | Fc1ccc(Nc2c(-c3ccccn3)nc3sccn23)cc1 [Compound 3r, N-(4-Fluorophenyl)-6-(pyridin-2-yl)imidazo[2,1-b][1,3]thiazol-5-amine] | 4 | 31.6 µM | 
6 | 15.8 µM | 17 µL/min/1e6 cells | > 300 µL/min/mg | 562 µM |  |  |  | COc1ccn2c(Cl)c(-c3ccccn3)nc2c1 [Compound 12, 3-Chloro-7-methoxy-2-(pyridin-2-yl)imidazo[1,2-a]pyridine] | 2 | 31.6 µM | 
7 | 50.1 µM | 140 µL/min/1e6 cells | 130 µL/min/mg | 828 µM |  |  |  | c1ccc(-c2cn3ccccc3n2)nc1 [Compound 11a, 2-(Pyridin-2-yl)imidazo[1,2-a]pyridine] | 1 | > 63.1 µM | 
8 | 25.1 µM | 128 µL/min/1e6 cells | 75 µL/min/mg | 3 µM |  |  |  | Fc1ccc(Nc2c(-c3ccccn3)nc3ccc(-c4cnoc4)cn23)cc1 [Compound 3q, N-(4-Fluorophenyl)-6-(1,2-oxazol-4-yl)-2-(pyridin-2-yl)imidazo[1,2-a]pyridin-3-amine] | 3 | > 63.1 µM | 
9 | 31.6 µM | 7.1 µL/min/1e6 cells | 120 µL/min/mg | 290 µM |  |  |  | COc1ccn2c(N)c(-c3ccccn3)nc2c1 [Compound 7b, 7-Methoxy-2-(pyridin-2-yl)imidazo[1,2-a]pyridin-3-amine] | 2 | > 63.1 µM | 
10 | 25.1 µM |  | > 300 µL/min/mg | 723 µM |  |  |  | COc1ccn2cc(-c3ccccn3)nc2c1 [Compound 11b, 7-Methoxy-2-(pyridin-2-yl)imidazo[1,2-a]pyridine] | 3 | > 63.1 µM | 
11 | 7.94 µM | > 300 µL/min/1e6 cells | > 300 µL/min/mg | 25 µM |  |  |  | Fc1ccc(Nc2c(-c3ccccn3)nc3ccc(F)cn23)cc1 [Compound 3e, 6-Fluoro-N-(4-fluorophenyl)-2-(pyridin-2-yl)imidazo[1,2-a]pyridin-3-amine] | 6 | 50.1 µM | 
12 | 2 µM |  |  |  |  |  |  | COc1ccc2nc(-c3ccccn3)c(Nc3ccc(F)cc3)n2c1 [Compound 3f, N-(4-Fluorophenyl)-6-methoxy-2-(pyridin-2-yl)imidazo[1,2-a]pyridin-3-amine] | 16 | 31.6 µM | 
13 | 7.94 µM | 190 µL/min/1e6 cells | 60 µL/min/mg | 26 µM |  |  |  | Fc1ccc(Nc2c(-c3ccccn3)nc3cccc(F)n23)cc1 [Compound 3b, 5-Fluoro-N-(4-fluorophenyl)-2-(pyridin-2-yl)imidazo[1,2-a]pyridin-3-amine] | 8 | > 63.1 µM | 
14 | 39.8 µM | 101 µL/min/1e6 cells | 220 µL/min/mg | 12 µM |  |  |  | Fc1ccc(Nc2c(-c3ccccn3)nc3c(F)cccn23)cc1 [Compound 3k, 8-Fluoro-N-(4-fluorophenyl)-2-(pyridin-2-yl)imidazo[1,2-a]pyridin-3-amine] | 2 | > 63.1 µM | 
15 | 50.1 µM |  |  | 64 µM |  |  |  | Fc1ccc(Nc2c(-c3ccccn3)nc3ccncn23)cc1 [Compound 3g, N-(4-Fluorophenyl)-2-(pyridin-2-yl)imidazo[1,2-c]pyrimidin-3-amine] | 1 | > 63.1 µM | 
16 |  |  |  |  | moderate (5.1 ≤ moderate ≤27) | moderate (8.6 ≤ moderate ≤47) |  | Fc1ccc(Nc2c(-c3ccccn3)nc3ccccn23)nc1 [Compound 8, 5-Fluoro-N-[2-(pyridin-2-yl)imidazo[1,2-a]pyridin-3-yl]pyridin-2-amine] |  |  | 
17 | > 63.1 µM | 64.2 µL/min/1e6 cells | 202 µL/min/mg | 61 µM |  |  |  | Fc1ccc(Nc2c(-c3ccccn3)nc3cnccn23)cc1 [Compound 3j, N-(4-Fluorophenyl)-2-(pyridin-2-yl)imidazo[1,2-a]pyrazin-3-amine] | 1 | > 63.1 µM | 
18 |  |  |  |  |  |  | 2% | COc1ccc2nc(-c3ccccn3)c(N(C)c3ccc(F)cc3)n2c1 [Compound 4n, N-(4-Fluorophenyl)-6-methoxy-N-methyl-2-(pyridin-2-yl)imidazo[1,2-a]pyridin-3-amine] |  |  | 
19 | 50.1 µM | 64.8 µL/min/1e6 cells | 42.4 µL/min/mg | 180 µM |  |  |  | Fc1ccc(Nc2c(-c3ccccn3)nc3ncccn23)cc1 [Compound 3m, N-(4-Fluorophenyl)-2-(pyridin-2-yl)imidazo[1,2-a]pyrimidin-3-amine] | 1 | > 63.1 µM | 
20 | 25.1 µM | 146 µL/min/1e6 cells | > 300 µL/min/mg | 0.1 µM |  |  |  | Fc1ccc(Nc2c(-c3ccccn3)nc3cc(F)ccn23)cc1 [Compound 3h, 7-Fluoro-N-(4-fluorophenyl)-2-(pyridin-2-yl)imidazo[1,2-a]pyridin-3-amine] | 3 | > 63.1 µM | 
21 | 7.94 µM | 29 µL/min/1e6 cells | 143 µL/min/mg | 2 µM |  |  |  | COc1cccn2c(Nc3ccc(F)cc3)c(-c3ccccn3)nc12 [Compound 3l, N-(4-Fluorophenyl)-8-methoxy-2-(pyridin-2-yl)imidazo[1,2-a]pyridin-3-amine] | 8 | > 63.1 µM | 
22 | 3.98 µM | > 300 µL/min/1e6 cells | 137 µL/min/mg | 8 µM |  |  |  | Fc1ccc(Nc2c(-c3ccccn3)nc3ccccn23)cc1 [Compound 3a, N-(4-Fluorophenyl)-2-(pyridin-2-yl)imidazo[1,2-a]pyridin-3-amine] | 16 |  | < 4.2
